Experimental data: patent publication US20040097594A1 (priority 1998, published 2004)
Where two headings read alike, the source gives them in different places.

What was measured:
HIV-1 protease = HIV-1 protease (Human immunodeficiency virus type 1 group M subtype B, UniProt P04585); test: biochemical
HIV-1 (strain IIIB) = test: microbe, parasite or virus in culture; format: cell-based; settings: Human immunodeficiency virus 1, 120 h; MT4 cells infected with HIV-1 strain IIIB, 5 days; lower line of each compound's entry; read-out: IC50 (MT-4 cells)
[1] = HIV-1 protease, upper line of each compound's entry, read-out: Ki (enzyme)

Compound: O=C(NC(Cc1ccccc1)C(O)CN(OC1CCCC1)S(=O)(=O)c1cccc(NCCO)c1)OC1COC2OCCC12 [Compound 36, (3R,3aS,6aR)hexahydrofuro[2,3-b]furan-3-yl N-(1S,2R)-1-benzyl-3-[(cyclopentyloxy)(3-[(2-hydroxyethyl)amino]phenylsulfonyl)amino]-2-hydroxypropylcarbamate and (3S,3aR,6aS)hexahydrofuro[2,3-b]furan-3-yl N-(1S,2R)-1-benzyl-3-[(cyclopentyloxy) (3-[(2-hydroxyethyl)amino]phenylsulfonyl)amino]-2-hydroxypropylcarbamate]
- Ki (HIV-1 protease; [1]): < 1 nM
- IC50 (HIV-1 (strain IIIB)): ≤ 100 nM

Compound: CC(C)COC(=O)N(CC(=O)NCCO)c1cccc(S(=O)(=O)N(CC(O)C(Cc2ccccc2)NC(=O)OC2COC3OCCC23)OC2CCCC2)c1 [Compound 37, (3R,3aS,6aR)hexahydrofuro[2,3-b]furan-3-yl N-(1S,2R)-1-benzyl-3-[(cyclopentyloxy)(3-[2-[(2-hydroxyethyl)amino]-2-oxoethyl(isobutoxycarbonyl)amino)phenylsulfonyl)amino]-2-hydroxypropylcarbamate and (3S,3aR,6aS)hexahydrofuro[2,3-b]furan-3-yl N-(1S,2R)-1-benzyl-3-[(cyclopentyloxy)(3-[2-[(2-hydroxyethyl)amino]-2-oxoethyl(isobutoxycarbonyl)amino]phenylsulfonyl)amino]-2-hydroxypropylcarbamate]
- Ki (HIV-1 protease; [1]): < 1 nM
- IC50 (HIV-1 (strain IIIB)): ≤ 100 nM

Compound: CC(C)ON(C[C@@H](O)[C@H](Cc1ccccc1)NC(=O)O[C@H]1CO[C@H]2OCC[C@H]21)S(=O)(=O)c1cccc(N)c1 [Compound 38]
- Ki (HIV-1 protease; [1]): < 1 nM
- IC50 (HIV-1 (strain IIIB)): ≤ 100 nM

Compound: CS(=O)(=O)Nc1nc2cc(S(=O)(=O)N(C[C@@H](O)[C@H](Cc3ccccc3)NC(=O)O[C@@H]3CO[C@@H]4OCC[C@@H]43)OC3CCCC3)ccc2[nH]1 [Compound 39, (3S,3aR,6aS)Hexahydrofuro[2,3-b]furan-3-yl-N-((1S,2R)-1-benzyl-3-(cyclopentyloxy)(2-[(methylsulfonyl)amino]benzimidazol-5-ylsulfonyl)amino-2-hydroxypropyl)carbamate]
- Ki (HIV-1 protease; [1]): < 1 nM
- IC50 (HIV-1 (strain IIIB)): 100 to 500 nM

Compound: CS(=O)(=O)Nc1nc2cc(S(=O)(=O)N(C[C@@H](O)[C@H](Cc3ccccc3)NC(=O)O[C@H]3CO[C@H]4OCC[C@H]43)OC3CCCC3)ccc2[nH]1 [Compound 40, (3R,3aS,6aR)Hexahydrofuro[2,3-b]furan-3-yl-N-((1S,2R)-1-benzyl-3-(cyclopentyloxy)(2-[(methylsulfonyl)amino]benzimidazol-5-ylsulfonyl)amino-2-hydroxypropyl)carbamate]
- Ki (HIV-1 protease; [1]): < 1 nM
- IC50 (HIV-1 (strain IIIB)): ≤ 100 nM

Compound: O=C(N[C@@H](Cc1ccccc1)[C@H](O)CN(OC1CCCC1)S(=O)(=O)c1cccc(O)c1)O[C@H]1CO[C@H]2OCC[C@H]21 [Compound 44, (3R,3aS,6aR)hexahydrofuro[2,3-b]furan-3-yl N-((1S,2R)-1-benzyl-3-(cyclopentyloxy)[(3-hydroxyphenyl)sulfonyl]amino-2-hydroxypropyl)carbamate]
- Ki (HIV-1 protease; [1]): < 1 nM
- IC50 (HIV-1 (strain IIIB)): ≤ 100 nM

Compound: CNc1cccc(S(=O)(=O)N(C[C@@H](O)[C@H](Cc2ccccc2)NC(=O)O[C@H]2CO[C@H]3OCC[C@H]32)OC2CCCC2)c1 [Compound 45, (3R,3aS,6aR)hexahydrofuro[2,3-b]furan-3-yl N-(1S,2R)-3-[[(3-N-methylaminophenyl)sulfonyl](cyclopentyloxy)amino]-1-benzyl-2-hydroxypropylcarbamate]
- Ki (HIV-1 protease; [1]): < 1 nM
- IC50 (HIV-1 (strain IIIB)): ≤ 100 nM

Compound: O=C(N[C@@H](Cc1ccccc1)[C@H](O)CN(OC1CCCC1)S(=O)(=O)c1ccc2nc[nH]c2c1)O[C@H]1CO[C@H]2OCC[C@H]21 [Compound 46, (3R,3aS,6aR)hexahydrofuro[2,3-b]furan-3-yl N-(1S,2R)-3-[(1H-benzimidazol-6-ylsulfonyl)(cyclopentyloxy)amino]-1-benzyl-2-hydroxypropylcarbamate]
- Ki (HIV-1 protease; [1]): < 1 nM
- IC50 (HIV-1 (strain IIIB)): ≤ 100 nM

Compound: COc1ccc(S(=O)(=O)N(C[C@@H](O)[C@H](Cc2ccccc2)NC(=O)O[C@H]2CCOC2)OC2CCCC2)cc1 [Compound 47, (3S)tetrahydro-3-furanyl N-((1S,2R)-1-benzyl-3-(cyclopentyloxy)[(4-methoxyphenyl)sulfonyl]amino-2-hydroxypropyl)carbamate]
- Ki (HIV-1 protease; [1]): < 1 nM
- IC50 (HIV-1 (strain IIIB)): 500 to 1000 nM

Compound: COc1ccc(S(=O)(=O)N(C[C@@H](O)[C@H](Cc2ccccc2)NC(=O)OC2COCOC2)OC2CCCC2)cc1 [Compound 48, 1,3-dioxan-5-yl N-((1S,2R)-1-benzyl-3-(cyclopentyloxy)[(4-methoxyphenyl)sulfonyl]amino-2-hydroxypropyl)carbamate]
- Ki (HIV-1 protease; [1]): < 1 nM
- IC50 (HIV-1 (strain IIIB)): 100 to 500 nM

Compound: NC(=O)C[C@H](NC(=O)c1ccc2ccccc2n1)C(=O)N[C@@H](Cc1ccccc1)[C@H](O)CN(OC1CCCC1)S(=O)(=O)c1cccc(N)c1 [Compound 49, (2S)-N^1-(1S,2R)-3-[[(3-aminophenyl)sulfonyl](cyclopentyloxy)amino]-1-benzyl-2-hydroxypropyl-2-[(2-quinolinylcarbonyl)amino]butanediamide]
- Ki (HIV-1 protease; [1]): < 1 nM
- IC50 (HIV-1 (strain IIIB)): ≤ 100 nM

Compound: COc1ccc(S(=O)(=O)N(C[C@@H](O)[C@H](Cc2ccccc2)NC(=O)[C@H](CC(N)=O)NC(=O)c2ccc3ccccc3n2)OC2CCCC2)cc1 [Compound 50]
- Ki (HIV-1 protease; [1]): < 1 nM
- IC50 (HIV-1 (strain IIIB)): ≤ 100 nM

Compound: COC(=O)Nc1nc2cc(S(=O)(=O)N(C[C@@H](O)[C@H](Cc3ccccc3)NC(=O)[C@H](CC(N)=O)NC(=O)c3ccc4ccccc4n3)OC3CCCC3)ccc2[nH]1 [Compound 51, (2S)-4-Amino-4-oxo-2-[(2-quinolinylcarbonyl)amino]butanamido N-(1S,2R)-1-benzyl-3-[(cyclopentyloxy)(2-{(methoxycarbonyl)amino]-1H-benzimidazol-5-ylsulfonyl)amino]-2-hydroxypropylcarbamate]
- Ki (HIV-1 protease; [1]): < 1 nM
- IC50 (HIV-1 (strain IIIB)): 100 to 500 nM

Compound: NC(=O)C[C@H](NC(=O)c1ccc2ccccc2n1)C(=O)N[C@@H](Cc1ccccc1)[C@H](O)CN(OC1CCCC1)S(=O)(=O)c1ccc2cn[nH]c2c1 [Compound 52]
- Ki (HIV-1 protease; [1]): < 1 nM
- IC50 (HIV-1 (strain IIIB)): ≤ 100 nM

Compound: COC(=O)Nc1nc2cc(S(=O)(=O)N(C[C@@H](O)[C@H](Cc3ccccc3)NC(=O)O[C@H]3CCOC3)OC3CCCC3)ccc2[nH]1 [Compound 53, (3S)Tetrahydro-3-furanyl N-(1S,2R)-1-benzyl-3-[(cyclopentyloxy)(2-[(methoxycarbonyl)amino]-1H-benzimidazol-5-ylsulfonyl)amino]-2-hydroxypropylcarbamate]
- Ki (HIV-1 protease; [1]): < 1 nM
- IC50 (HIV-1 (strain IIIB)): ≤ 100 nM

Compound: COC(=O)Nc1nc2cc(S(=O)(=O)N(C[C@@H](O)[C@H](Cc3ccccc3)NC(=O)OC3COCOC3)OC3CCCC3)ccc2[nH]1 [Compound 55, 1,3-Dioxan-5-yl N-(1S,2R)-1-benzyl-3-[(cyclopentyloxy)(2-{(methoxycarbonyl)amino]-1H-benzimidazol-5-ylsulfonyl)amino]-2-hydroxypropylcarbamate]
- Ki (HIV-1 protease; [1]): < 1 nM
- IC50 (HIV-1 (strain IIIB)): ≤ 100 nM

Compound: O=C(N[C@@H](Cc1ccccc1)[C@H](O)CN(OC1CCCC1)S(=O)(=O)c1ccc2[nH]ncc2c1)O[C@H]1CCOC1 [Compound 56, (3S)Tetrahydro-3-furanyl N-(1S,2R)-1-benzyl-3-[(cyclopentyloxy)(1H-indazol-5-ylsulfonyl)amino]-2-hydroxypropylcarbamate]
- Ki (HIV-1 protease; [1]): < 1 nM
- IC50 (HIV-1 (strain IIIB)): 100 to 500 nM

Compound: O=C(N[C@@H](Cc1ccccc1)[C@H](O)CN(OC1CCCC1)S(=O)(=O)c1ccc2[nH]ncc2c1)OC1CO[C@H]2OCC[C@@H]12 (stereo partly drawn) [Compound 57, (3aS,6aR)Hexahydrofuro[2,3-b]furan-3-yl N-(1S,2R)-1-benzyl-3-[(cyclopentyloxy)(1H-indazol-5-ylsulfonyl)amino]-2-hydroxypropylcarbamate]
- Ki (HIV-1 protease; [1]): < 1 nM
- IC50 (HIV-1 (strain IIIB)): ≤ 100 nM

Compound: O=C(N[C@@H](Cc1ccccc1)[C@H](O)CN(OC1CCCC1)S(=O)(=O)c1ccc2cn[nH]c2c1)O[C@H]1CCOC1 [Compound 58, (3S)Tetrahydro-3-furanyl N-(1S,2R)-1-benzyl-3-[(cyclopentyloxy)(1H-indazol-6-ylsulfonyl)amino]-2-hydroxypropylcarbamate]
- Ki (HIV-1 protease; [1]): < 1 nM
- IC50 (HIV-1 (strain IIIB)): 100 to 500 nM

Compound: O=C(N[C@@H](Cc1ccccc1)[C@H](O)CN(OC1CCCC1)S(=O)(=O)c1ccc2cn[nH]c2c1)OC1CO[C@H]2OCC[C@@H]12 (stereo partly drawn) [Compound 59, (3aS,6aR)Hexahydro[2,3-b]furan-3-yl N-(1S,2R)-1-benzyl-3-[(cyclopentyloxy)(1H-indazol-6-ylsulfonyl)amino]-2-hydroxypropylcarbamate]
- Ki (HIV-1 protease; [1]): < 1 nM
- IC50 (HIV-1 (strain IIIB)): ≤ 100 nM

Compound: O=C(N[C@@H](Cc1ccccc1)[C@H](O)CN(OC1CCCC1)S(=O)(=O)c1ccc2cn[nH]c2c1)OC1COCOC1 [Compound 60, 1,3-Dioxan-5-yl N-(1S,2R)-1-benzyl-3-[(cyclopentyloxy)(1H-indazol-6-ylsulfonyl)amino]-2-hydroxypropylcarbamate]
- Ki (HIV-1 protease; [1]): < 1 nM
- IC50 (HIV-1 (strain IIIB)): 100 to 500 nM

Compound: CC(C)ON(C[C@@H](O)[C@H](Cc1ccccc1)NC(=O)O[C@H]1CCOC1)S(=O)(=O)c1cccc(N)c1 [Compound 61, (3S)tetrahydro-3-furanyl N-(1S,2R)-3-[[(3-aminophenyl)sulfonyl](isopropoxy)amino]-1-benzyl-2-hydroxypropylcarbamate]
- Ki (HIV-1 protease; [1]): 1 to 10 nM
- IC50 (HIV-1 (strain IIIB)): 500 to 1000 nM

Compound: CC(C)ON(C[C@@H](O)[C@H](Cc1ccccc1)NC(=O)O[C@H]1CCOC1)S(=O)(=O)c1ccc2[nH]c(=O)[nH]c2c1 [Compound 62, (3S)tetrahydro-3-furanyl N-((1S,2R)-1-benzyl-2-hydroxy-3-isopropoxy[(2-oxo-2,3-dihydro-1H-1,3-benzimidazol-5-yl)sulfonyl]aminopropyl)carbamate]
- Ki (HIV-1 protease; [1]): 1 to 10 nM
- IC50 (HIV-1 (strain IIIB)): > 1000 nM

Compound: COc1ccc(S(=O)(=O)N(C[C@@H](O)[C@H](Cc2ccccc2)NC(=O)O[C@H]2CCOC2)OC2CCCCC2)cc1 [Compound 64, (3S)tetrahydro-3-furanyl N-((1S,2R)-1-benzyl-3-(cyclohexyloxy)[(4-methoxyphenyl)sulfonyl]amino-2-hydroxypropyl)carbamate]
- Ki (HIV-1 protease): < 1 nM
- IC50 (HIV-1 (strain IIIB)): > 1000 nM
